# Source: patent publication US7625887B2, “Receptor agonists” (Takeda Pharmaceutical Company Limited, priority 2003, dated 2009)
# Key:
# NCI-H716 cells [1] = assay: GLP-1 secretion from NCI-H716 cell line; format: cell-based, human; conditions: 5 μM, 2 hrs; secretion amount in Base was 100%
# Procedure: NCI-H716 cells secrete Glucagon-like peptide-1 (GLP-1). GLP-1 is a peptide useful for controlling blood glucose level because it acts on the pancreas to cause secretion of insulin and the like. In the same manner as in Experimental Example 9, NCI-H716 (ATCC) was seeded in a 96 well plate and, after incubation for 2 days, used for the following secretion test. As a buffer for secretion test, modified Krebs-Ringer bicarbonate buffer (KRBH, 116 mM NaCl, 4.7 mM KCl, 1.2 mM KH2PO4, 1.2 mM MgSO4, 2.5 mM CaCl2, 25 mM NaHCO3, 24 mM HEPES, pH 7.3) supplemented with glucose 5.5 mM and BSA 0.1% was used. The cells were washed once with the buffer for secretion test, preincubated at 37° C. under 5% CO2, bile acid diluted with the buffer for secretion test was added and the cells were cultured at 37° C. under 5% CO2 for 2 hrs. The cell culture supernatant was collected, cryopreserved and the GLP-1 content in the supernatant was measured using a GLP-1 measurement EIA kit (Linco) The results are shown in Table 9. In the Table, Base means non-addition of a test compound.
# guinea pig TGR5 = assay: cAMP production increasing activity in guinea pig TGR5 expressing CHO cells; format: cell-based; conditions: test compound 2 μM; 10 μM lithocholic acid = 100%; average of 3 groups
# NCI-H716 cells [2] = assay: intracellular cAMP production increasing action in NCI-H716 cells; format: cell-based, human; conditions: 10 μM, 2 hrs; production amount in TLCA (50 μM) was 100%; Base 11
# Procedure: NCI-H716 (ATCC) was suspended in a medium (Dulbecco's Modified Eagle Medium (DMEM, Invitrogen) supplemented with 10% fetal bovine serum (Invitrogen), 100 U/ml penicillin and 100 μg/ml streptomycin), seeded in a 96 well plate, cultured for 2 days and used for cAMP production assay. As a cAMP assay buffer, modified Krebs-Ringer bicarbonate buffer (KRBH, 116 mM NaCl, 4.7 mM KCl, 1.2 mM KH2PO4, 1.2 MM MgSO4, 2.5 mM CaCl2, 25 mM NaHCO3, 24 mM HEPES pH 7.3), supplemented with glucose 5.5 mM, bovine serum albumin (BSA) 0.1%, and 3-isobutyl-1-methylxanthine (IBMX, Sigma) 1 mM, was used. The cells were washed once with cAMP assay buffer. Bile acids (50 μM) diluted with cAMP assay buffer or the compounds of the present invention (10 μM) were added thereto and the cells were incubated for 2 hrs. The culture supernatant was discarded, and the cAMP production amount was measured by cAMP Screen System (ABI). In the Table, Base means non-addition of a test compound.
# [3] = tested on: guinea pig intestine primary culture cells; assay: GLP-1 secretion from guinea pig intestine primary culture cells; format: cell-based; conditions: test compound 10 μM, 90 min
# Procedure: Colon mucous membrane of guinea pig (Hartley, male, Charles River Japan, Inc.) was removed and subjected to an enzyme treatment to give a cell dispersion according to the following method.
# (§1) The enzyme solution used was obtained by dissolving 5 mg/ml Collagenase (Sigma), 5 mg/ml Hyaluronidase (Sigma) and 0.5 mg/ml DNaseI (Sigma) in a medium. The medium used was Dulbecco's Modified Eagle Medium (DMEM, Invitrogen) supplemented with 4.5 g/l Glucose, 5% FBS (Invitrogen), 100 units/ml Penicillin (Invitrogen), 100 μg/ml Streptomycin (Invitrogen), 50 μg/ml Gentamicin (Invitrogen) and 20 mM Hepes (pH 7.3). After digestion by the enzyme solution at 37° C., the tissue sections were prepared into dispersed cells by passing through a pipette 4 times and the cells were collected. The collected cells were washed with a buffer (incubation buffer) obtained by adding 5.5 mM Glucose and 0.1% BSA to a modified Krebs-Ringer bicarbonate buffer (KRBH, 116 mM NaCl, 4.7 mM KCl, 1.2 mM KH2PO4, 1.2 MM MgSO4, 2.5 mM CaCl2, 25 mM NaHCO3, 24 mM HEPES, pH 7.3), and preincubated at 37° C. under 5% CO2 for 30 min. 0.1 μM Phorbol ester (Wako), 1% DPPIV inhibitor (Linco) and a test compound were added to the above-mentioned incubation buffer, and the obtained buffer was added to the cells after the aforementioned preincubation and incubated for 90 min. The culture supernatant was collected and cryopreserved. The concentration of GLP-1 released in the culture supernatant was measured using an ELISA kit (Linco).
# [4] = tested on: guinea pig peripheral blood mononuclear cells; assay: TNF secretion in LPS-stimulated guinea pig peripheral blood mononuclear cells; format: cell-based; conditions: 16 hrs, test compound 10 μM; non-addition: 160 with LPS, 13 without
# Procedure: (§2) The peripheral blood was taken from guinea pig, and mononuclear cell fraction was obtained by a density separation method using Ficoll-Paque PLUS (Amersham Pharmacia). The fraction at a concentration of 1×10^5/well was cultured for 16 hrs in the presence of […] LPS in a 96-well plate upon addition of bile acid or a test compound. The culture supernatant was collected and TNF and IL-6 in the supernatant were quantitated.
# The TNF secretion amount in the culture supernatant was measured in the same manner as in Experimental Example 7.
# human TGR5 = target: T1, human TGR5 (Homo sapiens, UniProt Q8TDU6); assay: cAMP production increasing activity in human TGR5 expressing CHO cells; format: cell-based; conditions: read-out: EC50 value (concentration necessary to make the cAMP production amount 50%)
# T1 construct: expressed in transfected cells; host or cells: CHO cells
# T1 sequence (Q8TDU6 1-330): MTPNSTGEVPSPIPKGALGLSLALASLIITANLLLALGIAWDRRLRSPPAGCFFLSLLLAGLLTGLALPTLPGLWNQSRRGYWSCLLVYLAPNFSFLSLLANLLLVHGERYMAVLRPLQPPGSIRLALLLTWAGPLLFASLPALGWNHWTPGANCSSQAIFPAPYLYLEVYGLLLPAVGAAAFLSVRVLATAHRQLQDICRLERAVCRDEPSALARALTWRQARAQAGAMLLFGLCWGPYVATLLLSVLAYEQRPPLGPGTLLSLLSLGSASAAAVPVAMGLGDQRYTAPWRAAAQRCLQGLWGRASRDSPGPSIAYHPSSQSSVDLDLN
# [5] = tested on: guinea pig peripheral blood mononuclear cells; assay: IL-6 secretion in LPS-stimulated guinea pig peripheral blood mononuclear cells; format: cell-based; conditions: 16 hrs, test compound 10 μM; non-addition: 520 with LPS, 32 without
# Procedure: as §2
# The quantitation of IL-6 in the culture supernatant was performed using IL-6 dependent cell line 7TD1 (RIKEN Institute) with its growth promoting action as an index. First, 7TD1 cells were suspended in a basic medium (RPMI1640 (Invitrogen) supplemented with 1% non-essential amino acid (Invitrogen) and 55 μM 2-mercaptoethanol (Invitrogen)) and seeded in a 96-well plate at a concentration of 2×10^3/well. Immediately after seeding, peripheral blood mononuclear cell culture supernatant diluted with a dilution medium (the above-mentioned basic medium supplemented with 10% FBS) was added and the cells were cultured for 2 days. The IL-6 content was determined by measuring the growth of the 7TD1 cells in the obtained culture product using a CellTiter-Glo (Promega). As the standard sample, human recombinant IL-6 (Genzyme) was used.
# [6] = tested on: rat intestine primary culture cells; assay: GLP-1 secretion from rat intestine primary culture cells; format: cell-based; conditions: test compound 20 μM, 150 min
# Procedure: Terminal ileum and colon mucous membrane were removed from rat (Wistar, male, Charles River Japan, Inc.) and subjected to an enzyme treatment to give a cell dispersion according to the following method.
# as §1, with “pipette 7” for “pipette 4”, “1.2 mM” for “1.2 MM”, “for 150” for “for 90”
# rat TGR5 = target: T2, rat TGR5 (Rattus norvegicus, UniProt Q80T02); assay: cAMP production increasing activity in rat type TGR5 expressing CHO cells; format: cell-based; conditions: 0.5 h, read-out: cAMP producing activity (control %)
# T2 construct: expressed in transfected cells; host or cells: CHO cells
# T2 sequence (Q80T02 1-329): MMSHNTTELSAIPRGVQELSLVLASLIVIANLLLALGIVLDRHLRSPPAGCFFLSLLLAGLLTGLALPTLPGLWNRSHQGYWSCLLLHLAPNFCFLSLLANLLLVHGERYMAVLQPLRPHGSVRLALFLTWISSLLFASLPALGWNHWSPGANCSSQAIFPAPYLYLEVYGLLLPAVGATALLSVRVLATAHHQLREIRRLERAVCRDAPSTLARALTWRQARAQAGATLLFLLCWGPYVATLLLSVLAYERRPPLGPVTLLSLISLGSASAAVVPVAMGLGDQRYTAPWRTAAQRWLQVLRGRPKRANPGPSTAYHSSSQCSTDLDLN
SMILES,GLP-1 secretion increase (%) (NCI-H716 cells [1]),cAMP producing activity (control %) (guinea pig TGR5),cAMP production increasing activity (%) (NCI-H716 cells [2]),GLP-1 (% relative to non-addition) [3],TNF α [4] [pg/mL],EC50 (human TGR5) [nM],IL-6 [5] [pg/mL],GLP-1 (% relative to non-addition) [6],activation at 2 µM (rat TGR5) [%]
"CC(=O)NCc1cccc(C2OC(CC(=O)NCc3ccccc3C(F)(F)F)C(=O)N(CC(C)(C)C)c3ccc(Cl)cc32)c1 (stereo not drawn) [Example 14, 2-[3,5-trans-5-[3-(acetylaminomethyl)phenyl]-7-chloro-1-neopentyl-2-oxo-1,2,3,5-tetrahydro-4,1-benzoxazepin-3-yl]-N-[2-(trifluoromethyl)benzyl]acetamide]",157,76,104,167 % relative to non-addition,83,< 100,260,–,–
"CC(c1cc(C(F)(F)F)cc(C(F)(F)F)c1)N1CCOc2nccc(-c3ccccc3)c2C1.Cl (centres unmarked) [Example 33C, 4-{1-[3,5-bis(trifluoromethyl)phenyl]ethyl}-6-phenyl-2,3,4,5-tetrahydropyrido[3,2-f][1,4]oxazepine hydrochloride]",–,111,–,–,–,< 100,–,214 % relative to non-addition,149
"O=S(=O)(c1cc(C(F)(F)F)cc(C(F)(F)F)c1)N1CCOc2nccc(-c3ccccc3)c2C1 [Example 22C, 4-{[3,5-bis(trifluoromethyl)phenyl]sulfonyl}-6-phenyl-2,3,4,5-tetrahydropyrido[3,2-f][1,4]oxazepine]",127,101,100,313 % relative to non-addition,66,–,170,–,–
